The values that follow come from ChEMBL document CHEMBL1129114, “Bioactive hydroxyethylene dipeptide isosteres with hydrophobic (P3-P1)-moieties. A novel strategy towards small non-peptide renin inhibitors” (Bioorg Med Chem Lett, 1996).

One may read the IC50 as the midpoint of a concentration-inhibition curve.

The target in the assay is T1, Renin (Homo sapiens, UniProt P00797).
T1 sequence (P00797 whole entry): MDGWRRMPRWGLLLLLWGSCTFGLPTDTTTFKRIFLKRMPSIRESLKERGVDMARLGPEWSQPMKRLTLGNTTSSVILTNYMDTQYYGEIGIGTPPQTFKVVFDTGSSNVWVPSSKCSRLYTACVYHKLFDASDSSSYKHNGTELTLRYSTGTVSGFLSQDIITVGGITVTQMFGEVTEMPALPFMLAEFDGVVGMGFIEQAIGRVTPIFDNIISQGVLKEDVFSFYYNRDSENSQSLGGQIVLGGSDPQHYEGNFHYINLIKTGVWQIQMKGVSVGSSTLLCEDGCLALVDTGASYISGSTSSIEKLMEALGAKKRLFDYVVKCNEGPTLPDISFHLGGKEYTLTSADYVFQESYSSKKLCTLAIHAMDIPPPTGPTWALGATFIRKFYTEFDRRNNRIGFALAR
Nature of the assay: In vitro binding affinity was tested against purified human renin at pH 7.2.

Regarding `CCCCNC(=O)[C@H](C)C[C@H](O)[C@@H](N)CC1CCCCC1`, the IC50 was found to be 30 µM.

`CCCCNC(=O)[C@H](C)C[C@H](O)[C@@H](N)C[C@H]1CC[C@H](CCCC(C)(C)C)CC1` had an IC50 of 4.3 µM. `CCCCNC(=O)[C@H](C)C[C@H](O)[C@@H](N)CC(C)(C)CCc1ccc2ccccc2c1` yielded an IC50 of 3 µM. With `CCCCNC(=O)[C@H](C)C[C@H](O)[C@@H](N)CC(CC)(CC)CCc1cccc2ccccc12` the figure was 2.7 µM. With `CCCCNC(=O)[C@H](C)C[C@H](O)[C@@H](N)C[C@@H]1CCC[C@@H](CCCC(C)(C)C)C1` the figure was 0.3 µM; with `CCCCNC(=O)[C@H](C)C[C@H](O)[C@@H](N)CC(C)(C)CCc1ccc(CO)cc1`, 79 µM; with `CCCCNC(=O)[C@H](C)C[C@H](O)[C@@H](N)CC(C)(C)CCc1ccc(CO)c2ccccc12`, 10 µM. Turning to `CCCCNC(=O)[C@H](C)C[C@H](O)[C@@H](N)Cc1ccc(OCc2ccccc2)cc1`, the IC50 was determined as 32 µM. This IC50 lies about 3.2-fold higher than the previous one. With `CCCCNC(=O)[C@H](C)C[C@H](O)[C@@H](N)Cc1cccc(CCCC(C)(C)C)c1` the figure was 13 µM; with `CCCCNC(=O)[C@H](C)C[C@H](O)[C@@H](N)CC(C)(C)CCCc1ccc2ccccc2c1`, 3.7 µM. For `CCCCNC(=O)[C@H](C)C[C@H](O)[C@@H](N)C[C@@H]1CCC[C@H](CCCC(C)(C)C)C1` the value was 2.9 µM; for `CCCCNC(=O)[C@H](C)C[C@H](O)[C@@H](N)CC(C)C`, above 100 µM. For `CCCCNC(=O)[C@H](C)C[C@H](O)[C@@H](N)CC1CCCC(CCCC(C)(C)C)C1` (stereo partly specified) the value was 0.8 µM; for `CCCCNC(=O)[C@H](C)C[C@H](O)[C@@H](N)CC(C)(C)CCc1cccc2ccccc12`, 0.7 µM. Consider `CCCCNC(=O)[C@H](C)C[C@H](O)[C@@H](N)CC(C)(C)CCCc1cccc2ccccc12`, for which the IC50 was 2.1 µM.

`CCCCNC(=O)[C@H](C)C[C@H](O)[C@@H](N)CC(C)(C)CCc1cccc(CO)c1` displayed a half-inhibitory concentration (IC50) of 58 µM.
